Residues, ends and D or L forms follow the SMILES beside them.
How the values were obtained:
[1] = Pharmacokinetics after a single gavage administration; assay type: in vivo; conditions: SD rats, single gavage 1.2 mg/kg, plasma, DAS 2.0, mean ± SD, n = 6
Description: Six 8-week-old male SD rats with weight between 180 to 220 g were purchased from the Laboratory Animal Center of Sichuan University (Sichuan University, Chengdu, Sichuan, China). The animals were maintained under 12-hour dark and light cycles at 22℃ and free access to food and water. After a week of adaptation, these SD rats were admitted to experiments. Absorption of YF4 in SD rats following a single oral administration of YF4 was investigated. At the end of the experiment, the rats were sacrificed inside an isoflurane chamber to avoid unnecessary suffering. The experiments were approved and supervised by the State Key Laboratory of Biotherapy Animal Care and Use Committee (Sichuan University, Chengdu, Sichuan, China).
SD rats were used to investigate the […] of YF4. Rats were chosed randomly for oral administration of free YF4 at the dose of 1.2 mg/kg (n=6), respectively. Before the experiment, all rats were fasted for 12 h with free access to water. Each rat was administered an oral volume of 0.5 mL/100 g. Approximate 200 μL of blood samples were collected from the orbit into a heparin zed centrifuge tube before and at 0.083, 0.25, 0.5, 0.75, 1, 1.5, 2, 3, 4, 6, 8, 12 h post-dosing. All blood samples were centrifuged at 3500 rpm (4 ℃) for 10 min. The plasma samples were collected and stored at -20 ℃ until analyzed by Drug and Statistics 2.0 (DAS 2.0) (Mathematical Pharmacology Professional Committee of China, Shanghai, China).

[2] = test system: spontaneously hypertensive rats (SHRs); test: In vivo antihypertensive efficacy, tail-cuff blood pressure; parameters: species or system rat; conditions: single oral dose 5 mg/kg, 2 h after administration, n = 6
Description: Twelve weeks old male spontaneously hypertensive rats (SHRs) with a circa weight between 250 and 320 g were purchased from Beijing Vital River Laboratory Animal Technology Co., Ltd. After a week of adaption, animals were admitted to experiments (six per group). […] The rats were free access to food and water. […] In this study, groups of rats were used for the oral administration of saline group, Captopril group vs. YF4 group, YF4 vs. YF4-NPs vs YF4-LNPs.
Simultaneously, the captopril and the saline water were used as the positive control and control group, respectively. SHRs were randomly divided into three groups (n = 6). Control group were treated with 0.9% saline water, and the other groups were treated with captopril (5 mg/kg) or the same dose of YF4 dissolved in saline water. All rats were administered at a single oral dose.
In YF4-LNPs pharmacodynamics study, the SHRs were randomly divided into three groups (n = 6). Control group were treated with 0.9% saline water, the other groups of SHRs were treated withYF4 and YF4-LNPs. All the groups of rats were given the same dose at 0.8 mg/kg body weight. Blood pressure was indirectly recorded as described above. […] All the SBP were measured for three times to get the average value at each time point.

| Compound | Cmax [1] [ng/mL] | AUC(0-inf) ([1]; male, rat, po) [ng·h/mL] | CL/F ([1]; male, rat, po, read-out: CLz/F (converted)) [mL/min/kg] | MRT ([1]; male, rat, po, read-out: MRT(0-t)) [h] | half-life ([1]; male, rat, po, read-out: T1/2z (half-life) (converted)) [h] | blood pressure lowing (BPL) effect compared with saline group [2] [mmHg] |
| --- | --- | --- | --- | --- | --- | --- |
| CC(C)C[C@H](NC(=O)CNC(=O)[C@@H](N)Cc1ccc(O)cc1)C(=O)N[C@@H](Cc1ccccc1)C(=O)O [YF4, Tyr-Gly-Leu-Phe] (H-YGLF-OH) | 15470 ± 3050 | 45400 ± 9420 | 0.333 | 3.17 ± 0.68 | 2.91 ± 0.05 | – |
| C[C@H](CS)C(=O)N1CCC[C@H]1C(=O)O [captopril] | – | – | – | – | – | 23.0 |
